The text below walks through data of patent publication US20070048360A1, “Pharmaceutical compositions with melting point depressant agents and method of making same” (priority 2005, published 2007).

Read-outs that look alike come from different tables or passages of the source.

A short description of series [1]: Aqueous blending of bulk powdered CFI and active drug, visual and microscopic check. Type of series: physicochemical.
The conditions of series [2]: cited from earlier work.
For series [3] the following is noted: oral; cited from earlier work.

With `CC(C)Cc1ccc(C(C)C(=O)O)cc1` (stereo not drawn) [Ibuprofen, ibuprofen], the “ethanol content of hydro-alcoholic mixture needed to solubilize the drug” value (from here on “ethanol content”) (drug 1% w/w) was “at least 50 % by weight of the total mixture”.
In the case of `C[C@]12CC[C@H]3[C@@H](CCC4=CC(=O)CC[C@@]43C)[C@@H]1CC[C@@H]2O` [TES, Testosterone], the “aspect of composition API:PES 1:1 in ethanol/purified water” value (from here on “aspect … in ethanol/purified water”) in series [1] was “stable oil droplets”.
With `CCN(CC)CC(=O)Nc1c(C)cccc1C` [Lidocaine, lidocaine], in series [1] (lidocaine 2.50% w/w and PES 2.50% w/w in water, ambient temperature in the dark), the “storage period over which aspect (transparent droplets, no crystallization) was maintained” value is on record as > 13 month.
As for `CN1C2CCCC1CC(NC(=O)c1nn(C)c3ccccc13)C2` (stereo not drawn) [GRA, Granisetron], the “aspect … in ethanol/purified water” value in series [1] (30% ethanol) is listed as “stable oil droplets”. The “ethanol content” value (drug 0.5% w/w) is on record as “at least 40 % by weight of the total mixture”.
Take `CC(C)(C)C1CCCCC1O` (stereo not drawn) [Ortho tertiary butyl cyclohexanol]: in series [2], the “Log P” value is recorded as “Log P: 3.3-3.4”.
As for `c1ccc2c(c1)CC1COCOC21` (stereo not drawn) [Indeno-m-dioxin tetrahydro], the “Log P” value in series [2] is “Log P: 1.33”.
For the compound `COc1ccccc1OCCNCC(O)COc1cccc2[nH]c3ccccc3c12` (stereo not drawn) [CAR, Carvedilol], in series [1] (30% ethanol), the “aspect … in ethanol/purified water” value was “stable oil droplets”. Also, under “drug 1% w/w”, the “ethanol content” value is “at least 80 % by weight of the total mixture”.
Regarding `NCCCC(O)(P(=O)(O)O)P(=O)(O)O` [sodium alendronate], the “fraction of the drug absorbed when administered orally” value in series [3] is given as “about 0.6%”.
For the compound `O=C(OCCc1ccccc1)c1ccccc1O` [Phenyl ethyl salicylate], the “Log P” value in series [2] is on record as “Log P: 4.31”.
Take `CCN(CC)CC#CCOC(=O)C(O)(c1ccccc1)C1CCCCC1` (stereo not drawn) [OXY, oxybutynin]: in series [1] (30% ethanol), the “aspect … in ethanol/purified water” value is “small transparent droplets easily re-suspended”.
With `CCCN(CCC)CCc1cccc2c1CC(=O)N2` [ROP, Ropinirole], the “aspect … in ethanol/purified water” value in series [1] (15% ethanol) is recorded as “stable oil droplets”. For the same compound, where the note is “drug 1% w/w”, the “ethanol content” value is reported as “at least 40 % by weight of the total mixture”.
Consider `Clc1cccc(Cl)c1N=C1NCCN1` [CLO, clonidine], for which the “aspect … in ethanol/purified water” value in series [1] (5% ethanol) and in series [1] (10% ethanol) was “stable oil droplets” in each case. For the same compound, where the note is “drug 0.5% w/w”, the “ethanol content” value is on record as “at least 50 % by weight of the total mixture”.
Regarding `CC(=O)CCc1ccc2c(c1)OCO2` [4-(1,3-benzodioxol-5-yl)butan-2-one], the “Log P” value in series [2] is given as “Log P: 1.15”.
